Data set [1] is described as follows: Clarity of gel phase by UV/VIS absorbance. The data set is classed as physicochemical. To be noted: original oral gel, 0.5% (w/w) zinc level; for Absorbance: 610 nm, DI water blank. Here is the method:
Four 500.0 g gel phase batches which contain NaF (control), ZLC, ZnCl2 and ZnO as active ingredient are formulated with the ingredients shown in Table 8. The clarity of samples with different actives is compared, and the precipitation characteristic of ZLC gel phase by dilution is evaluated. The concentration of zinc ions in ZLC solution is 25300 ppm obtained by ICP, which in terms gives approximately 17% weight of ZLC actives in the solution. Zinc ion concentration in the following batches are all prepared at 0.5% (w/w) zinc level.
(§1) Lambda 25 UV/VIS Spectrometer (PerkinElmer) is used to obtain absorbance information for all samples in order to compare the clarity of gel phase between different actives. Absorbance is a logarithmic measure of the amount of light that is absorbed when passing through a substance. Since the particles in the gel absorb light, the more particles existing in solution, the more light absorbed by the gel. Thus, a small number of absorbance of a gel indicates a higher clarity. The absorbance is corrected by using deionized (DI) water as the blank solution under the light source wavelength of 610 nm.

The nature of a further data set: pH of gel phase batches. In kind it is physicochemical. To be noted: original oral gel batch.
The nature of data set [2]: Dilution experiment of gel phase batches (absorbance). In kind it is physicochemical. Conditions: for Absorbance, 2 fold dilution: gel phase batch diluted 2 fold; for Absorbance, 4 fold dilution: gel phase batch diluted 4 fold; for Absorbance, 8 fold dilution: gel phase batch diluted 8 fold; for Absorbance, 16 fold dilution: gel phase batch diluted 16 fold; for Absorbance, 32 fold dilution: gel phase batch diluted 32 fold.
From the text: as §1
(§2) Dilution experiment: All original gel phase batch are diluted into 2 fold, 4 fold, 8 fold, 16 fold and 32 fold. […] This observation confirms the formation of precipitate when ZLC gel is being diluted by water. The pHs of 2 fold, 4 fold, 8 fold, 16 fold, and 32 fold diluted ZLC gel solution are 7.71, 7.91, 8.03, 8.12, and 8.14, respectively.

Data set [3] in a line: pH of diluted ZLC gel solution. In kind it is physicochemical. Here is the method:
as §2

Data set [4] is described as follows: Dilution of neat ZLC solution, flocculation/precipitation monitored. In kind it is physicochemical. To be noted: 37° C. Here is the method:
Various dilutions of ZLC are prepared to evaluate its efficiency in producing visible precipitates and/or flocculation, which can be delivered onto a dental surface (dentine and/or enamel) for whitening benefits.
(§3) A neat solution of ZLC is prepared by 1), reacting 0.5 mole of ZnO powder with 1 mole of lysine HCl in 1 liter of water at room temperature for about 2 hours, and 2) collecting the supernatant through centrifugation followed by filtration using a 0.45 micron membrane. The neat solution has a zinc concentration of 2.39% by weight, and a pH of about 7.03.
(§4) Dilution experiment is conducted by mixing the neat solution with deionized water. The neat solution is diluted by 2×, 4×, 6×, 7×, 8×, 10×, 12×, 16×, 20×, 24×, 28×, and 32×, corresponding to initial zinc concentrations of 1.20%, 0.598%, 0.398%, 0.341%, 0.299%, 0.239%, 0.199%, 0.149%, 0.120%, 0.0996%, 0.0854%, 0.0747%, by weight, respectively. The diluted samples are kept at 37° C., and the rates at which flocculation/precipitation occurred are monitored.

A short description of data set [5]: pH of neat and final diluted ZLC solutions. In kind it is physicochemical. Here is the method: as §3, §4
pH values of final diluted samples are suitable for oral care applications. […] These pH values are well within the range of 5.5 to 10, which defines the suitable range for oral care formulations.

Data set [6] is described as follows: Deposition/occlusion assay, confocal imaging. Also noted: species or system human. Conditions: 0.149% zinc, 1 hour at 37° C. Here is the method:
(§5) The deposition/occlusion assay is conducted using human dentine slices and the neat solution of Example 3. The dentine slices are prepared by cutting human tooth into thin dentine sections of about 800 microns in thickness, designating a test side, sanding said test side using a sandpaper of about 600 grit, polishing said test side using a Buehler polishing cloth and 5 micron Buehler aluminum oxide, acid-etching said dentine section in 1% (by weight) citric acid solution for about 20 seconds, sonicating said dentine section for 10 minutes, and storing said dentine section in phosphate buffered saline (PBS, pH 7.4, Gibco Cat. No. 10010).
(§6) For treatment, the neat solution is diluted 16-fold with water, yielding a treatment solution with initial zinc concentration of about 0.149% by weight. The dentine section is immersed in the treatment solution for 1 hour at 37° C. The treated dentine section is then removed from the treatment solution, and rinsed 4 times, each time with 1 mL of PBS. The dentine section is then dried using a paper-based tissue and examined under confocal microscope in both XYZ and XYZ modes. Subsequent treatments are conducted in the same manner.
Progressive deposition and occlusion can be observed via confocal imaging. […] The surface deposits can be 10 microns or more in thickness. […] The surface deposits can be 25 microns or more in thickness.

Data set [7] can be described thus: Repeated 10 minute treatments of dentine section, confocal imaging. Also noted: species or system human. Conditions: 10 minutes at 37° C.; for surface deposition on dentine: 0.0747% zinc. Here is the method: as §5
A new dentine sections, as prepared following the procedure in Example 4, is repeatedly treated with ZLC dilutions with initial zinc concentration of 0.0747% by weight. […] The dentine section is examined under the confocal microscope after each treatment.

The nature of data set [8]: Spectrophotometric analysis of whitening (CIELAB color reading). Also noted: species or system human. To be noted: dentine section of Example 4 after third treatment. Here is the method:
as §6
Spectrophotometric analysis proves the whitening efficacy of the ZLC treatment. After the third treatment, the dentine section of Example 4 is dried and examined under a Spectroshade™ spectrophotometer (Handy Dental Type 71,3000). The treated dentinal area is included and the enamel rim is excluded from the examination and subsequent data processing. The CIELAB color reading is L*=86.6, a*=−1.7, and b*=1.5. A similarly prepared dentine section without treatment yielded a reading of L*=72.5, a*=−1.9, and b*=10.3. It is commonly understood that, by definition, L*=0 means black and L*=100 indicates diffuse white, negative a* value indicates green while positive values indicate magenta, and negative b* values indicate blue and positive values indicate yellow.

Bounds are passed on as bounds.

Take `[F-].[Na+]` [NaF]: in data set [1], the Absorbance is given as 0.0344. Also, the pH in “pH of gel phase batches” was found to be 7.63. Besides, in [2], the “Absorbance, 2 fold dilution” value was 0.0106; the “Absorbance, 4 fold dilution” value is recorded as 0.0104; the “Absorbance, 8 fold dilution” value is recorded as 0.0107; the “Absorbance, 16 fold dilution” value is given as 0.0075. For the same molecule, in data set [2], the “Absorbance, 32 fold dilution” value stood at 0.0137.

In the case of `[Cl-].[Cl-].[Zn+2]` [ZnCl2], in data set [1], the “appearance of gel phase” value was “appears cloudy” and the Absorbance was 0.9204. For the same molecule, the pH in “pH of gel phase batches” is 5.25. Besides, in data set [2], the “Absorbance, 2 fold dilution” value came to 0.7315; the “Absorbance, 4 fold dilution” value was 0.3700; the “Absorbance, 8 fold dilution” value is listed as 0.1701; the “Absorbance, 16 fold dilution” value is 0.0570. In [2], the “Absorbance, 32 fold dilution” value came to 0.0280.

Turning to `[O-2].[Zn+2]` [ZnO], in data set [1], the “appearance of gel phase” value is “not dissolved and is suspended in gel phase”; the Absorbance is 2.4626. The molecule further returned a pH in “pH of gel phase batches” of 8.30. Further, in data set [2], the “Absorbance, 2 fold dilution” value amounted to 2.4630; the “Absorbance, 4 fold dilution” value came to 2.5340; the “Absorbance, 8 fold dilution” value was 2.1883; the “Absorbance, 16 fold dilution” value came out at 1.8638. Further, the “Absorbance, 32 fold dilution” value in data set [2] is 1.0492.

For the molecule [Zn(C6H14N2O2)2Cl]^+Cl^− [ZLC], in data set [1], the “appearance of gel phase” value is recorded as “forms a homogenous solution”. The molecule also had an Absorbance in data set [1] of 0.1765. In addition, in the data set “pH of gel phase batches”, the pH was 7.37. Also, the “Absorbance, 2 fold dilution” value in data set [2] is 0.1436. In data set [2], the “Absorbance, 4 fold dilution” value is listed as 0.1887. In data set [2], the “Absorbance, 8 fold dilution” value was 0.1860. Also, the “Absorbance, 16 fold dilution” value in data set [2] was 0.1336. Moreover, the “Absorbance, 32 fold dilution” value in data set [2] is 0.2998. Also, the “pH of diluted ZLC gel solution” value in data set [3] (2 fold diluted) was 7.71; in [3] (4 fold diluted), 7.91; in [3] (8 fold diluted), 8.03; in data set [3] (16 fold diluted), 8.12; in [3] (32 fold diluted), 8.14. Also, the “time to some visible flocculation from mixing with water” value in [4] (initial zinc concentrations 0.149% and 0.199%) was not above 30 min. The flocculation observed result is reported as “visible flocculation” in data set [4] (one and a half hours after mixing, initial zinc between 0.0747% and 0.239%); “visible flocculation” in data set [4] (one hour from mixing, initial zinc between 0.0854% and 0.239%); “presence of flocculation” in data set [4] (two hours after mixing, initial zinc 0.299%). For the same molecule, the “flocculation and/or precipitation observed” value in [4] (total of 19 hours, all samples except initial zinc 1.20%) is “flocculation and/or precipitation can be observed”. Moreover, the “relative amount of precipitates” value in data set [4] (total of 19 hours, initial zinc between 0.0747% and 0.239%) was “the most precipitates”. Further, the “final pH value of diluted sample” value in data set [5] (initial zinc concentration 0.0747%) was found to be 7.99; in data set [5] (initial zinc concentration 0.0854%), 8.13; in [5] (initial zinc concentration 0.0996%) it was 8.11; in data set [5] (initial zinc concentration 0.120%), 7.97; in data set [5] (initial zinc concentration 0.149%), 7.99; in data set [5] (initial zinc concentration 0.199 wt %) it was 6.80. The “final pH value of diluted sample” value in [5] (initial zinc concentration 0.239%) came to 6.70. In data set [5] (neat solution, zinc concentration 2.39% by weight), the “pH of neat solution” value is given as “about 7.03”. The “deposition and occlusion on dentine surface” value is “noticeable deposition” in data set [6] (first treatment); “complete surface coverage, including blocking of substantially all tubule openings” in data set [6] (second treatment); “complete surface coverage and complete blocking of tubule openings” in data set [6] (third treatment). Moreover, the “thickness of surface deposits” value in [6] (second treatment) is recorded as not below 10 microns; in [6] (third treatment) it was not below 25 microns. For the same molecule, the entries for the “surface deposition on dentine” value in data set [7] (after 4 consecutive treatments) and in data set [7] (after 12 consecutive treatments) were “significant surface deposition” and “complete surface coverage”, respectively. For the same molecule, the “precipitation by naked eyes during treatment” value in data set [7] (initial zinc 0.0747%) is given as “no precipitation”. For the same molecule, in data set [8] (untreated section L*=72.5), the “CIELAB color reading L*” value came to 86.6. Further, the “CIELAB color reading a*” value in data set [8] (untreated section a*=−1.9) is listed as −1.7. Further, in data set [8] (untreated section b*=10.3), the “CIELAB color reading b*” value was 1.5.

For the origin of these results see patent US11197811B2, “Teeth whitening methods, visually perceptible signals and compositions therefor” (Colgate-Palmolive Company, priority 2012, dated 2021).
